Drawing on patent US9624200B2, “Therapeutic piperazines” (DART NEUROSCIENCE (CAYMAN) LTD., priority 2006, dated 2017), this text covers IC50 for 13 compounds.

The structures appear in SMILES notation.

In this test the test system is PDE4 from human U-937 cells. In words: PDE4 Inhibition Assay. In kind it is biochemical. To be noted: 1 μM cAMP, [3H]-cAMP, read-out: Potency Class (Inhibitory Concentration) in the PDE4 assay. The gist of the method:
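U-937-derived PDE4 (2 μg/ml) was preincubated with compound in Tris-HCl pH 7.5 for 15 min at 25° C. It then reacted 20 min with cAMP plus [^3H]-cAMP. [^3H]-AMP was converted to [^3H]-adenosine by nucleotidase, resin-separated and counted; IC50 came from percent inhibition.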
As to `CCc1nn(C2CCC2)c2cc(N3CCN(C(=O)Cc4n[nH]c(N)n4)[C@@H](Cc4ccccc4)C3)ccc12` [Compound 355, (S)-2-(5-amino-1H-1,2,4-triazol-3-yl)-1-(2-benzyl-4-(1-cyclobutyl-3-ethyl-1H-indazol-6-yl)piperazin-1-yl)ethanone], the IC50 was < 200 nM.

Turning to `Cc1n[nH]c(CC(=O)N2CCN(c3ccc(OC(F)F)c(OC(F)F)c3)C[C@@H]2Cc2ccccc2)n1` [Compound 332, (S)-1-(2-benzyl-4-(3,4-bis(difluoromethoxy)phenyl)piperazin-1-yl)-2-(3-methyl-1H-1,2,4-triazol-5-yl)ethanone], the IC50 is < 200 nM.

Take `COc1ccc(N2CCN(C(=O)Cc3cc(C)[nH]n3)[C@@H](Cc3ccccc3)C2)cc1OC1CCCC1` [Compound 305, (S)-1-(2-benzyl-4-(3-(cyclopentyloxy)-4-methoxyphenyl)piperazin-1-yl)-2-(5-methyl-1H-pyrazol-3-yl)ethanone]: the IC50 is < 200 nM.

Take `CCc1nn(C2CCC2)c2cc(N3CCN(C(=O)Cc4ccccn4)[C@@H](Cc4ccccc4)C3)ccc12` [Compound 352, (S)-1-(2-benzyl-4-(1-cyclobutyl-3-ethyl-1H-indazol-6-yl)piperazin-1-yl)-2-(pyridin-2-yl)ethanone]: the IC50 was > 1000 nM.

As for `COc1ccc(N2CCN(CCC(N)=O)[C@@H](Cc3ccccc3)C2)cc1OC(C)C` [Compound 272, (S)-3-(2-benzyl-4-(3-isopropoxy-4-methoxyphenyl)piperazin-1-yl)propanamide], the IC50 is 200 to 1000 nM.

In the case of `COc1ccc(N2CCN(C(=O)c3cc[nH]n3)[C@@H](Cc3ccccc3)C2)cc1OC1CCCC1` [Compound 304, (S)-(2-benzyl-4-(3-(cyclopentyloxy)-4-methoxyphenyl)piperazin-1-yl)(1H-pyrazol-3-yl)methanone], the IC50 was > 1000 nM.

With `COc1ccc(N2CCN(C(=O)Cc3ccccn3)[C@@H](Cc3ccccc3)C2)cc1OC1CCCC1` [Compound 384, (S)-1-(2-benzyl-4-(3-(cyclopentyloxy)-4-methoxyphenyl)piperazin-1-yl)-2-(pyridin-2-yl)ethanone], the IC50 was < 200 nM.

`COc1ccc(N2CCN(C(=O)Cc3ncccn3)[C@@H](Cc3ccccc3)C2)cc1OC1CCC1` [Compound 340, (S)-1-(2-benzyl-4-(3-cyclobutoxy-4-methoxyphenyl)piperazin-1-yl)-2-(pyrimidin-2-yl)ethanone]: the IC50 was < 200 nM.

With `Cc1nc(CC(=O)N2CCN(c3ccc(OC(F)F)c(OC4CCC4)c3)C[C@@H]2Cc2ccccc2)n[nH]1` [Compound 345, (S)-1-(2-benzyl-4-(3-cyclobutoxy-4-(difluoromethoxy)phenyl)piperazin-1-yl)-2-(5-methyl-1H-1,2,4-triazol-3-yl)ethanone], the IC50 was < 200 nM.

`COc1ccc(N2CCN(C(=O)CC(=O)O)[C@@H](Cc3ccccc3)C2)cc1OC1CCC1` [Compound 258, (S)-3-(2-benzyl-4-(3-cyclobutoxy-4-methoxyphenyl)piperazin-1-yl)-3-oxopropanoic acid]: the IC50 is < 200 nM.

Take `COc1ccc(N2CCN(Cc3sc(C)nc3C)[C@@H](Cc3ccccc3)C2)cc1OC1CCCC1` [Compound 359, (S)-5-((2-benzyl-4-(3-(cyclopentyloxy)-4-methoxyphenyl)piperazin-1-yl)methyl)-2,4-dimethylthiazole]: the IC50 is > 1000 nM.

Regarding `COc1ccc(N2CCN(C(=O)Cc3ncccn3)[C@@H](Cc3ccccc3)C2)cc1OC(C)C` [Compound 343, (S)-1-(2-benzyl-4-(3-isopropoxy-4-methoxyphenyl)piperazin-1-yl)-2-(pyrimidin-2-yl)ethanone], the IC50 is 200 to 1000 nM.

Regarding `CC(C)C[C@H]1CN(c2ccc(OC(F)F)c(OC3CCCC3)c2)CCN1C(=O)Cc1c[nH]cn1` [Compound 366, (S)-1-(4-(3-(cyclopentyloxy)-4-(difluoromethoxy)phenyl)-2-isobutylpiperazin-1-yl)-2-(1H-imidazol-4-yl)ethanone], the IC50 lay in the range of 200 to 1000 nM.
